This note sets out measurements from US20140011799A1 (Bristol-Myers Squibb Company, priority 2012, published 2014).

The target in one assay is T1, Endothelial lipase (EL) (Homo sapiens, UniProt Q9Y5X9).
T1 construct: HT-1080 cells that were transformed using RAGE technology (Athersys) to overexpress endogenous EL; endogenous in cells; conditioned medium used
T1 sequence (Q9Y5X9 21-500): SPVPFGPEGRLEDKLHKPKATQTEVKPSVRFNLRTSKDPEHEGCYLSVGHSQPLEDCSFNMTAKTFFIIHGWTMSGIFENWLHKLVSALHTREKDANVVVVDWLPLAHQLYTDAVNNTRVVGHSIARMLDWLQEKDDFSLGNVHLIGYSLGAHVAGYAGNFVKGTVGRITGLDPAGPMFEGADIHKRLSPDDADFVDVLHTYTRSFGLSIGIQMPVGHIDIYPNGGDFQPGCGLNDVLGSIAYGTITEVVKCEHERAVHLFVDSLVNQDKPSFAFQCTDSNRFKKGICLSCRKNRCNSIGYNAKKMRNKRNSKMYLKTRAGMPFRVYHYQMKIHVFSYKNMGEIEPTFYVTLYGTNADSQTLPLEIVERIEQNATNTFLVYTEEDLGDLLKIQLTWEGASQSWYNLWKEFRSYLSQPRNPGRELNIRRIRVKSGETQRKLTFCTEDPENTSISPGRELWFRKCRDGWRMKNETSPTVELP
Kind of assay: Endothelial lipase (EL) enzymatic assay, fluorescent substrate A10070 in DMPG vesicles. It counts as biochemical. The conditions noted are these: EL from conditioned media of HT-1080 cells; compound preincubated 30 min at 37° C; read-out: EL IC50. The method in brief: (§1)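 Substrate A10070 sits in sonicated DMPG vesicles at 0.11 mole fraction. Lipase and compound preincubated 30 min, 37° C, in HEPES pH 8.0 buffer with CaCl2.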

The next assay deals with T2, hepatic lipase (HL) (Homo sapiens, UniProt P11150).
T2 construct: made in house; host or cells: COS cells (conditioned medium, partially purified)
T2 sequence (P11150 23-499): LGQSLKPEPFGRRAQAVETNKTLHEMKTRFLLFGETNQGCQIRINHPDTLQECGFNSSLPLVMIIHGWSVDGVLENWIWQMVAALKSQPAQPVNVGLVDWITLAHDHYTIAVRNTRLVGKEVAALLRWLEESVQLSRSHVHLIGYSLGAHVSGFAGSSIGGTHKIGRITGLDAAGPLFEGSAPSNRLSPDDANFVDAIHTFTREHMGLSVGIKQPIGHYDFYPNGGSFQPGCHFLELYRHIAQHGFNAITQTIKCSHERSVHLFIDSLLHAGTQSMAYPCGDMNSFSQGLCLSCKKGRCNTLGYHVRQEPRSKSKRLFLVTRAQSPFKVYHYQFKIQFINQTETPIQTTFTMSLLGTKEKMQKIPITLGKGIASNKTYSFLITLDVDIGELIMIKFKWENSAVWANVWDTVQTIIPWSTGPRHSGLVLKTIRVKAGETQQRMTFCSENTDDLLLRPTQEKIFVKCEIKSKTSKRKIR
Kind of assay: Hepatic lipase (HL) enzymatic assay, fluorescent substrate A10070 in DMPG vesicles. It counts as biochemical. The conditions noted are these: HL partially purified from conditioned media of COS cells; compound preincubated 30 min at 37° C; read-out: HL IC50. The method in brief:
as §1

What is called IC50 is the concentration at which inhibition is half-maximal. On to `CC1(CS(=O)(=O)C(c2nnc(CNS(N)(=O)=O)o2)c2nc3ccc(-c4ccc(C(=O)N5CCOCC5)cc4)cc3s2)COC1` (centres unmarked) [Example 135, N-((5-((((3-methyl-3-oxetanyl)methyl)sulfonyl)(6-(4-(4-morpholinylcarbonyl)phenyl)-1,3-benzothiazol-2-yl)methyl)-1,3,4-oxadiazol-2-yl)methyl)sulfamide], for which the half-inhibitory concentration (IC50) was below 10 nM on Endothelial lipase (EL) and 91 nM at hepatic lipase (HL).

Consider `CS(=O)(=O)C(c1nnc(CNS(N)(=O)=O)o1)c1nc2ccc(-c3cccc(C(=O)N4CCC(F)(F)CC4)c3)cc2s1` (centres unmarked) [Example 254, N-{[5-({6-[3-(4,4-difluoropiperidine-1-carbonyl)phenyl]-1,3-benzothiazol-2-yl} (methanesulfonyl)methyl)-1,3,4-oxadiazol-2-yl]methyl} aminosulfonamide], for which the IC50 on Endothelial lipase (EL) came to 5 nM; on hepatic lipase (HL), 17 nM.

With `COC1CN(C(=O)c2cccc(-c3ccc4nc(C(c5nnc(CNS(N)(=O)=O)o5)S(C)(=O)=O)sc4c3)c2)C1` (centres unmarked) [Example 267, N-({5-[methanesulfonyl({6-[3-(3-methoxyazetidine-1-carbonyl)phenyl]-1,3-benzothiazol-2-yl})methyl]-1,3,4-oxadiazol-2-yl}methyl)aminosulfonamide], the results for the IC50 on Endothelial lipase (EL) and on hepatic lipase (HL) were 14 nM and 41 nM, respectively.

In the case of `NS(=O)(=O)NCc1nnc(C(c2nc3ccc(-c4ccc(C(=O)N5CCOCC5)cc4)cc3s2)S(=O)(=O)CCNC(=O)OCc2ccccc2)o1` (centres unmarked) [Example 134, benzyl {2-[({6-[4-(4-morpholinylcarbonyl)phenyl]-1,3-benzothiazol-2-yl}{5-[(sulfamoylamino)methyl]-1,3,4-oxadiazol-2-yl}methyl)sulfonyl]ethyl} carbamate], the concentration for half-maximal inhibition (IC50) on Endothelial lipase (EL) came to 20 nM; at hepatic lipase (HL), 307 nM.

With `C#CCNC(=O)c1cccc(-c2ccc3nc(C(c4nnc(CNS(N)(=O)=O)o4)S(C)(=O)=O)sc3c2)c1` (centres unmarked) [Example 265, 3-{2-[methanesulfonyl({5-[(sulfamoylamino)methyl]-1,3,4-oxadiazol-2-yl})methyl]-1,3-benzothiazol-6-yl}-N-(prop-2-yn-1-yl) benzamide], the IC50 at Endothelial lipase (EL) amounted to 6 nM; on hepatic lipase (HL) it was 19 nM.

Turning to `CN1CCN(C(=O)c2cccc(-c3ccc4nc(C(c5nnc(CNS(N)(=O)=O)o5)S(=O)(=O)CCC(F)(F)F)sc4c3)c2)CC1` (centres unmarked) [Example 201, N-((5-((6-(3-((4-methyl-1-piperazinyl)carbonyl)phenyl)-1,3-benzothiazol-2-yl)((3,3,3-trifluoropropyl)sulfonyl)methyl)-1,3,4-oxadiazol-2-yl)methyl)sulfamide], the IC50 at Endothelial lipase (EL) was below 10 nM; at hepatic lipase (HL) it was 365 nM.

As for `NS(=O)(=O)NCc1nnc(C(c2nc3ccc(C(=O)N4CCOCC4)cc3s2)S(=O)(=O)Cc2ccccc2)o1` (centres unmarked) [Example 189, N-((5-((Benzylsulfonyl)(6-(4-morpholinylcarbonyl)-1,3-benzothiazol-2-yl)methyl)-1,3,4-oxadiazol-2-yl)methyl)sulfamide], the 50% inhibitory concentration (IC50) amounted to 13 nM at Endothelial lipase (EL) and 2370 nM on hepatic lipase (HL).

Turning to `COC1CN(C(=O)c2cccc(-c3ccc4nc(C(c5nnc(CC6(C)NC(=O)NC6=O)o5)S(C)(=O)=O)sc4c3)c2)C1` (centres unmarked) [Example 209, 5-({5-[methanesulfonyl({6-[3-(3-methoxyazetidine-1-carbonyl)phenyl]-1,3-benzothiazol-2-yl})methyl]-1,3,4-oxadiazol-2-yl}methyl)-5-methyl-imidazolidine-2,4-dione], the 50% inhibitory concentration (IC50) at Endothelial lipase (EL) was determined as 18 nM; on hepatic lipase (HL), 227 nM.

For `CC(O)CS(=O)(=O)C(c1nnc(CNS(N)(=O)=O)o1)c1nc2ccc(-c3ccccc3)cc2s1` (centres unmarked) [Example 170, N-((5-(((2-Hydroxypropyl)sulfonyl)(6-phenyl-1,3-benzothiazol-2-yl)methyl)-1,3,4-oxadiazol-2-yl)methyl)sulfamide], the 50% inhibitory concentration (IC50) on Endothelial lipase (EL) and at hepatic lipase (HL) was below 10 nM in each case.

For the compound `CC1(Cc2nnc(C(c3nc4ccc(-c5cccc(C(=O)NC6CC6)c5)cc4s3)S(C)(=O)=O)o2)NC(=O)NC1=O` (centres unmarked) [Example 225, N-cyclopropyl-3-{2-[methanesulfonyl({5-[(4-methyl-2,5-dioxo-imidazolidin-4-yl)methyl]-1,3,4-oxadiazol-2-yl})methyl]-1,3-benzothiazol-6-yl}benzamide], the IC50 on Endothelial lipase (EL) came out at 5 nM; on hepatic lipase (HL) it was 51 nM.

As to `CN(C)C(=O)c1ccc(-c2ccc3nc(C(c4nnc(CNS(N)(=O)=O)o4)S(=O)(=O)Cc4ccccc4)sc3c2)cc1Cl` (centres unmarked) [Example 146, 4-(2-((benzylsulfonyl)(5-((sulfamoylamino)methyl)-1,3,4-oxadiazol-2-yl)methyl)-1,3-benzothiazol-6-yl)-2-chloro-N,N-dimethylbenzamide], the results for the IC50 at Endothelial lipase (EL) and on hepatic lipase (HL) were below 10 nM and 391 nM, respectively.

On to `CC1(Cc2nnc(C(c3nc4ccc(-c5cccc(C(=O)N6CC[C@@H](F)C6)c5)cc4s3)S(C)(=O)=O)o2)NC(=O)NC1=O` (stereo partly drawn) [Example 232, 5-({5-[(6-{3-[(3R)-3-fluoropyrrolidine-1-carbonyl]phenyl}-1,3-benzothiazol-2-yl) (methanesulfonyl)methyl]-1,3,4-oxadiazol-2-yl}methyl)-5-methyl-imidazolidine-2,4-dione], for which the figures for the concentration for half-maximal inhibition (IC50) at Endothelial lipase (EL) and on hepatic lipase (HL) were 1 nM and 54 nM, respectively.

Turning to `CO[C@@H]1CCN(C(=O)c2cccc(-c3ccc4nc(C(c5nnc(CC6(C)NC(=O)NC6=O)o5)S(C)(=O)=O)sc4c3)c2)C1` (stereo partly drawn) [Example 211, 5-({5-[methanesulfonyl(6-{3-[(3R)-3-methoxy-pyrrolidine-1-carbonyl]phenyl}-1,3-benzothiazol-2-yl)methyl]-1,3,4-oxadiazol-2-yl}methyl)-5-methyl-imidazolidine-2,4-dione], the IC50 on Endothelial lipase (EL) was found to be 2 nM; at hepatic lipase (HL) it was 575 nM.

With `CCOCC(=O)NCc1nnc(C(c2nc3ccc(-c4ccccc4)cc3s2)S(C)(=O)=O)o1` (centres unmarked) [Example 157, 2-ethoxy-N-((5-((methylsulfonyl)(6-phenyl-1,3-benzothiazol-2-yl)methyl)-1,3,4-oxadiazol-2-yl)methyl)acetamide], the IC50 on Endothelial lipase (EL) was 223 nM; at hepatic lipase (HL), 34 nM.

As to `CS(=O)(=O)C(c1nnc(CNS(N)(=O)=O)o1)c1nc2ccc(-c3cccc(C(=O)NC4CCC(O)CC4)c3)cc2s1` (centres unmarked) [Example 258, N-(4-hydroxycyclohexyl)-3-{2-[methanesulfonyl({5-[(sulfamoylamino)methyl]-1,3,4-oxadiazol-2-yl})methyl]-1,3-benzothiazol-6-yl}benzamide], the half-inhibitory concentration (IC50) at Endothelial lipase (EL) was determined as 8 nM; on hepatic lipase (HL), 35 nM.

Regarding `Cc1noc(C)c1-c1ccc2nc(C(c3nnc(CNS(N)(=O)=O)o3)S(C)(=O)=O)sc2c1` (centres unmarked) [Example 117, N-[(5-{[6-(3,5-dimethyl-1,2-oxazol-4-yl)-1,3-benzothiazol-2-yl](methylsulfonyl)methyl}-1,3,4-oxadiazol-2-yl)methyl] sulfuric diamide], the results for the IC50 at Endothelial lipase (EL) and on hepatic lipase (HL) were 24 nM and 230 nM, respectively.

With `COCc1ccc(-c2ccc3nc(C(c4nnc(CNS(N)(=O)=O)o4)S(=O)(=O)Cc4ccc(OC(F)(F)F)cc4)sc3c2)cc1` (centres unmarked) [Example 237, N-{[5-({6-[4-(methoxymethyl)phenyl]-1,3-benzothiazol-2-yl}[4-(trifluoromethoxy)phenyl]methanesulfonylmethyl)-1,3,4-oxadiazol-2-yl]methyl} aminosulfonamide], the half-maximal inhibitory concentration (IC50) at Endothelial lipase (EL) was found to be 1 nM; on hepatic lipase (HL), 2 nM.

Take `NCCS(=O)(=O)C(c1nnc(CNS(N)(=O)=O)o1)c1nc2ccc(-c3ccc(C(=O)N4CCOCC4)cc3)cc2s1` (centres unmarked) [Example 183, N-{[5-([(2-Aminoethyl)sulfonyl]{6-[4-(4-morpholinylcarbonyl)phenyl]-1,3-benzothiazol-2-yl}methyl)-1,3,4-oxadiazol-2-yl]methyl}sulfuric diamide]: the IC50 is 14 nM on Endothelial lipase (EL) and 178 nM on hepatic lipase (HL).

Turning to `CS(=O)(=O)C(c1nnc(CNS(N)(=O)=O)o1)c1nc2ccc(-c3ccc(O)nc3)cc2s1` (centres unmarked) [Example 133, N-((5-((methylsulfonyl)(6-(6-oxo-1,6-dihydro-3-pyridinyl)-1,3-benzothiazol-2-yl)methyl)-1,3,4-oxadiazol-2-yl)methyl) sulfamide], the IC50 was 16 nM on Endothelial lipase (EL) and 467 nM on hepatic lipase (HL).
